According to PubChem BioAssay AID248 (DTP/NCI, 2004):
Inconclusive results and toxic doses are left out. Rule as the data show it: active = T/C of 150% or more; inactive = T/C below 125%.

Tested on: L1210 leukemia ip in BDF1 mice, survival T/C
Test: NCI In Vivo Anticancer Drug Screen. Data for tumor model L1210 Leukemia (intraperitoneal) in B6D2F1 (BDF1) mice
Conditions: endpoint: mean survival time, higher = longer survival
How it was run: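 Ratio derived from survival: compound-dosed mice over vehicle-dosed mice, all bearing a transplantable tumor.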

[1] = dose: 100.0 mg/kg/injection, schedule: Q01DX001 (ip), vehicle: Klucel (hydroxypropylcellulose) (HPC)
[2] = dose: 200.0 mg/kg/injection, schedule: Q01DX001 (ip), vehicle: Klucel (hydroxypropylcellulose) (HPC)
[3] = dose: 100.0 mg/kg/injection, schedule: Q01DX009 (ip), vehicle: Klucel (hydroxypropylcellulose) (HPC)
[4] = dose: 200.0 mg/kg/injection, schedule: Q01DX009 (ip), vehicle: Klucel (hydroxypropylcellulose) (HPC)
[5] = dose: 10.0 mg/kg/injection, schedule: Q01DX001 (ip), vehicle: carboxymethylcellulose (CMC)
[6] = dose: 400.0 mg/kg/injection, schedule: Q01DX001 (ip), vehicle: carboxymethylcellulose (CMC)
[7] = dose: 100.0 mg/kg/injection, schedule: Q04DX002 (ip), vehicle: Klucel (hydroxypropylcellulose) (HPC)
[8] = dose: 200.0 mg/kg/injection, schedule: Q04DX002 (ip), vehicle: Klucel (hydroxypropylcellulose) (HPC)
[9] = dose: 400.0 mg/kg/injection, schedule: Q04DX002 (ip), vehicle: Klucel (hydroxypropylcellulose) (HPC)
[10] = dose: 100.0 mg/kg/injection, schedule: Q04DX003 (ip), vehicle: Klucel (hydroxypropylcellulose) (HPC)
[11] = dose: 200.0 mg/kg/injection, schedule: Q04DX003 (ip), vehicle: Klucel (hydroxypropylcellulose) (HPC)
[12] = dose: 400.0 mg/kg/injection, schedule: Q04DX003 (ip), vehicle: Klucel (hydroxypropylcellulose) (HPC)

Measured: T/C

COc1ccc2c(c1)CCC1C2CCC2C(O)CCC(=O)C21 (centres undefined)
inactive: dose: 50.0 mg/kg/injection, schedule: Q01DX001 (ip), vehicle: Klucel (hydroxypropylcellulose) (HPC) 102 % of control | [1] 102 % of control | [2] 98 % of control

CC1CC(NC(=S)N(C)C)CC(C)(C)C1 (centres undefined)
inactive: dose: 50.0 mg/kg/injection, schedule: Q01DX009 (ip), vehicle: Klucel (hydroxypropylcellulose) (HPC) 92 % of control | [3] 100 % of control | [4] 102 % of control

CC12COC(=O)CC1CCC1C2CCC2(C)C1CCC2(C)O (centres undefined)
inactive: dose: 50.0 mg/kg/injection, schedule: Q01DX009 (ip), vehicle: saline with Tween-80 96 % of control | dose: 100.0 mg/kg/injection, schedule: Q01DX001 (ip), vehicle: saline 93 % of control | dose: 100.0 mg/kg/injection, schedule: Q01DX009 (ip), vehicle: saline with Tween-80 91 % of control | dose: 200.0 mg/kg/injection, schedule: Q01DX001 (ip), vehicle: saline 90 % of control | dose: 200.0 mg/kg/injection, schedule: Q01DX009 (ip), vehicle: saline with Tween-80 101 % of control

Cc1ccc(C(=O)Oc2ccc(Cl)c(C)c2Cl)cc1
inactive: dose: 75.0 mg/kg/injection, schedule: Q01DX001 (ip), vehicle: carboxymethylcellulose (CMC) 91 % of control | dose: 150.0 mg/kg/injection, schedule: Q01DX001 (ip), vehicle: carboxymethylcellulose (CMC) 92 % of control | dose: 300.0 mg/kg/injection, schedule: Q01DX001 (ip), vehicle: carboxymethylcellulose (CMC) 92 % of control

CC(=O)C(=O)N1Cc2cc3ccccc3nc2C1
inactive: dose: 100.0 mg/kg/injection, schedule: Q04DX003 (ip), vehicle: saline 115 % of control | dose: 200.0 mg/kg/injection, schedule: Q04DX003 (ip), vehicle: saline 102 % of control | dose: 400.0 mg/kg/injection, schedule: Q04DX003 (ip), vehicle: saline 102 % of control

Cc1cc2ccccc2c2cc3ccccc3cc12
inactive: [3] 104 % of control | dose: 100.0 mg/kg/injection, schedule: Q04DX003 (ip), vehicle: other 111 % of control | [4] 109 % of control | dose: 200.0 mg/kg/injection, schedule: Q04DX003 (ip), vehicle: other 106 % of control | dose: 400.0 mg/kg/injection, schedule: Q01DX009 (ip), vehicle: Klucel (hydroxypropylcellulose) (HPC) 107 % of control | dose: 400.0 mg/kg/injection, schedule: Q04DX003 (ip), vehicle: other 111 % of control

Cc1cc(C)c(C(=O)c2ccccc2)c(=O)o1
inactive: [5] 100 % of control | dose: 20.0 mg/kg/injection, schedule: Q01DX001 (ip), vehicle: carboxymethylcellulose (CMC) 100 % of control | dose: 40.0 mg/kg/injection, schedule: Q01DX001 (ip), vehicle: carboxymethylcellulose (CMC) 97 % of control | [6] 103 % of control

Cc1cccc(C(=O)CC(O)(C(F)(F)F)C(F)(F)F)n1
inactive: dose: 100.0 mg/kg/injection, schedule: Q04DX003 (ip), vehicle: saline with Tween-80 92 % of control | dose: 200.0 mg/kg/injection, schedule: Q04DX003 (ip), vehicle: saline with Tween-80 86 % of control | dose: 400.0 mg/kg/injection, schedule: Q04DX003 (ip), vehicle: saline with Tween-80 90 % of control

NC(N)=N/N=C/C/C=N/N=C(N)N
inactive: dose: 15.0 mg/kg/injection, schedule: Q01DX Z (ip), vehicle: saline 97 % of control | dose: 30.0 mg/kg/injection, schedule: Q01DX Z (ip), vehicle: saline 100 % of control | dose: 60.0 mg/kg/injection, schedule: Q01DX Z (ip), vehicle: saline 96 % of control | dose: 120.0 mg/kg/injection, schedule: Q01DX Z (ip), vehicle: saline 100 % of control | dose: 120.0 mg/kg/injection, schedule: Q01DX Z (oral), vehicle: saline 102 % of control | dose: 240.0 mg/kg/injection, schedule: Q01DX Z (oral), vehicle: saline 102 % of control | dose: 480.0 mg/kg/injection, schedule: Q01DX Z (oral), vehicle: saline 107 % of control | dose: 960.0 mg/kg/injection, schedule: Q01DX Z (oral), vehicle: saline 103 % of control

N#CCCN(CCCN1CCOCC1)CN1C(=O)c2ccccc2C1=O
inactive: dose: 100.0 mg/kg/injection, schedule: Q04DX002 (ip), vehicle: saline 104 % of control | dose: 200.0 mg/kg/injection, schedule: Q04DX002 (ip), vehicle: saline 93 % of control | dose: 400.0 mg/kg/injection, schedule: Q04DX002 (ip), vehicle: saline 111 % of control

CCCCCOC(=O)C(O)C(C)(Cl)c1ccccc1 (centres undefined)
inactive: [7] 100 % of control | [8] 111 % of control | [9] 100 % of control

COC1OC2COC(c3ccccc3)OC(OC)(C2)C1NC(C)=O (centres undefined)
inactive: [1] 102 % of control | [2] 101 % of control | dose: 400.0 mg/kg/injection, schedule: Q01DX001 (ip), vehicle: Klucel (hydroxypropylcellulose) (HPC) 98 % of control

Clc1nc(N2CC2)nc(N2CC2)n1
inactive: dose: 2.5 mg/kg/injection, schedule: Q01DX001 (ip), vehicle: carboxymethylcellulose (CMC) 112 % of control | dose: 5.0 mg/kg/injection, schedule: Q01DX001 (ip), vehicle: carboxymethylcellulose (CMC) 112 % of control | [5] 117 % of control | dose: 15.0 mg/kg/injection, schedule: Q01DX001 (ip), vehicle: carboxymethylcellulose (CMC) 114 % of control

CC(=O)OC1=C(c2c(C)cc(C)c(Br)c2C)C(=O)C(OC(C)=O)=C(c2c(C)cc(C)c(Br)c2C)C1=O
inactive: [10] 104 % of control | [11] 100 % of control | [12] 98 % of control

[Cl][Zn][Cl].[NH-]CCN1CC1.[NH-]CCN1CC1
inactive: dose: 10.0 mg/kg/injection, schedule: Q01DX009 (ip), vehicle: saline 108 % of control | dose: 20.0 mg/kg/injection, schedule: Q01DX009 (ip), vehicle: saline 111 % of control | dose: 20.0 mg/kg/injection, schedule: Q04DX003 (ip), vehicle: saline 104 % of control | dose: 40.0 mg/kg/injection, schedule: Q01DX009 (ip), vehicle: saline 93 % of control | dose: 40.0 mg/kg/injection, schedule: Q04DX003 (ip), vehicle: saline 102 % of control

O=S1c2ccccc2Oc2ccccc21
inactive: [7] 108 % of control | [8] 108 % of control | [9] 108 % of control

COc1cc(OC)c(OCc2ccccc2)c(OC)c1
inactive: dose: 100.0 mg/kg/injection, schedule: Q01DX001 (ip), vehicle: carboxymethylcellulose (CMC) 96 % of control | dose: 200.0 mg/kg/injection, schedule: Q01DX001 (ip), vehicle: carboxymethylcellulose (CMC) 94 % of control | [6] 96 % of control

COC(OC)c1cc(S)[nH]c(=O)c1F
inactive: [10] 98 % of control | [11] 97 % of control | [12] 103 % of control

Cc1ccc(CNC(=O)NCCCCCCNC(=O)NCc2ccc(C)cc2)cc1
inactive: dose: 100.0 mg/kg/injection, schedule: Q01DX009 (ip), vehicle: other 95 % of control | dose: 200.0 mg/kg/injection, schedule: Q01DX009 (ip), vehicle: other 100 % of control | dose: 400.0 mg/kg/injection, schedule: Q01DX009 (ip), vehicle: other 100 % of control

CC(=O)NC1C(OCc2ccccc2)OC(CO)C(O)C1OCc1ccccc1 (centres undefined)
inactive: dose: 100.0 mg/kg/injection, schedule: Q01DX001 (ip), vehicle: saline with Tween-80 100 % of control | dose: 200.0 mg/kg/injection, schedule: Q01DX001 (ip), vehicle: saline with Tween-80 107 % of control | dose: 400.0 mg/kg/injection, schedule: Q01DX001 (ip), vehicle: saline with Tween-80 96 % of control
